Results from ChEMBL document CHEMBL4130461, “New chemotype of selective and potent inhibitors of human delta 24-dehydrocholesterol reductase” (Eur J Med Chem, 2017).
Counter-ions that a name gives are not always drawn. Each block holds one compound with its values, some of them ahead of it. The source made the active and inactive calls. The rule behind the calls is not given here.

Key:
HL-60 [1] = test: Induction of sterol accumulation in human HL60 cells assessed as desmosterol accumulation at 1 uM incubated for 24 hrs by GC-MS analysis; type: functional, cell-based
HL-60 [2] = test: Induction of sterol accumulation in human HL60 cells assessed as desmosterol accumulation at 50 uM incubated for 24 hrs by GC-MS analysis; type: functional, cell-based
HL-60 [3] = test: cells; settings: Homo sapiens
Description: Cytotoxicity in human HL60 cells by MTT assay

HL-60 [4] = test: Induction of sterol accumulation in human HL60 cells assessed as zymosterol accumulation at 50 uM incubated for 24 hrs by GC-MS analysis; type: functional, cell-based
HL-60 [5] = test: Induction of sterol accumulation in human HL60 cells assessed as holesta-7,24-dien-3beta-ol accumulation at 50 uM incubated for 24 hrs by GC-MS analysis; type: functional, cell-based
HL-60 [6] = test: Induction of sterol accumulation in human HL60 cells assessed as lathosterol accumulation at 1 uM incubated for 24 hrs by GC-MS analysis; type: functional, cell-based
HL-60 [7] = test: Induction of sterol accumulation in human HL60 cells at 0.1 uM incubated for 24 hrs by GC-MS analysis; type: functional, cell-based
HL-60 [8] = test: Induction of sterol accumulation in human HL60 cells at 1 uM incubated for 24 hrs by GC-MS analysis; type: functional, cell-based
HL-60 [9] = test: Induction of sterol accumulation in human HL60 cells at 50 uM incubated for 24 hrs by GC-MS analysis; type: functional, cell-based
HL-60 [10] = test: Induction of sterol accumulation in human HL60 cells assessed as holesta-7,24-dien-3beta-ol accumulation at 1 uM incubated for 24 hrs by GC-MS analysis; type: functional, cell-based
HL-60 [11] = test: Cytotoxicity in human HL60 cells at 50 uM by MTT assay; type: cell-based; settings: hl-60, 50 µM
HL-60 [12] = test: Induction of sterol accumulation in human HL60 cells assessed as zymosterol accumulation at 1 uM incubated for 24 hrs by GC-MS analysis; type: functional, cell-based
HL-60 [13] = test: Intracellular drug accumulation in human HL60 cells at 10 uM incubated for 24 hrs by GC-MS analysis; type: ADME, cell-based; settings: hl-60, 24 h
HL-60 [14] = test: Extracellular drug accumulation in human HL60 cells at 10 uM incubated for 24 hrs by GC-MS analysis; type: ADME, cell-based; settings: hl-60, 24 h
[15] = Drug metabolism in human HL60 cells at 10 uM incubated for 24 hrs by GC-MS analysis; type: ADME, cell-based; settings: hl-60, 24 h
Mus musculus [16] = test: Induction of desmosterol accumulation in C57BL/6 mouse blood at 500 ug/day, iv dosed daily for 5 days byGC-MS analysis; type: functional
Mus musculus [17] = test: Liver toxicity in C57BL/6 mouse assessed as effect on ALT levels at 500 ug/day, iv dosed daily for 5 days; type: organism-based; settings: in vivo, 120 h
Mus musculus [18] = test: Reduction in cholesterol level in C57BL/6 mouse blood at 500 ug/day, iv dosed daily for 5 days byGC-MS analysis; type: functional, organism-based
Mus musculus [19] = test: Liver toxicity in C57BL/6 mouse assessed as effect on AST levels at 500 ug/day, iv dosed daily for 5 days; type: organism-based; settings: in vivo, 120 h
Mus musculus [20] = test: Acute liver toxicity in C57BL/6 mouse at 500 ug/day, iv dosed daily for 5 days; type: organism-based; settings: in vivo, 120 h
HL-60 [21] = test: Induction of sterol accumulation in human HL60 cells assessed as lathosterol accumulation at 50 uM incubated for 24 hrs by GC-MS analysis; type: functional, cell-based
[22] = molecular target: T1, Lathosterol oxidase (Homo sapiens) (UniProt O75845); test: Inhibition of C5-desaturase in human HL60 cells assessed as compound level causing induction of sterol accumulation incubated for 24 hrs by GC-MS analysis; type: cell-based
T1 sequence (whole entry): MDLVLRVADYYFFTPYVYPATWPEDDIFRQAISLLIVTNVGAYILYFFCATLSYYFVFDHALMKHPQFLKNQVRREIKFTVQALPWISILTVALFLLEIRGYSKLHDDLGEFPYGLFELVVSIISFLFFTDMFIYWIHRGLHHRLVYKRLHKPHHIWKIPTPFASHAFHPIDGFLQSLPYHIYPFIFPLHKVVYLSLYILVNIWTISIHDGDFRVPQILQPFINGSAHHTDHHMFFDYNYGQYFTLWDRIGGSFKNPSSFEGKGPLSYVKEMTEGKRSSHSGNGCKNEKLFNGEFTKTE

SMILES: CNC(=O)[C@@H](C)[C@H]1CC[C@H]2C3=CC[C@H]4C[C@@H](OC(C)=O)CC[C@]4(C)[C@H]3CC[C@]12C
Activity (HL-60 [1]): Active
Activity (HL-60 [2]): Active
IC50 (HL-60 [3]): > 50 µM

SMILES: C[C@H](CCC(=O)N(C)C)[C@H]1CC[C@H]2[C@@H]3CC=C4C[C@@H](O)CC[C@]4(C)[C@H]3CC[C@]12C
Activity (HL-60 [1]): Active
Activity (HL-60 [2]): Active
IC50 (HL-60 [3]): > 50 µM

SMILES: CC(C)CCC[C@@H](C)[C@H]1CC[C@H]2C3=CC[C@H]4C[C@@H](O)CC[C@]4(C)[C@H]3CC[C@]12C
Activity (HL-60 [7]): inactive

SMILES: CC(C)=CCC[C@@H](C)[C@H]1CC[C@H]2C3=C(CC[C@]12C)[C@@]1(C)CC[C@H](O)C[C@@H]1CC3
Activity (HL-60 [7]): inactive

SMILES: CC(=O)O[C@H]1CC[C@@]2(C)[C@@H](CC=C3[C@@H]2CC[C@]2(C)[C@@H]([C@H](C)C(=O)O)CC[C@@H]32)C1
Activity (HL-60 [8]): inactive
Activity (HL-60 [9]): inactive
IC50 (HL-60 [3]): > 50 µM

SMILES: C[C@H](O)[C@H]1CC[C@H]2[C@@H]3CC=C4C[C@@H](O)CC[C@]4(C)[C@H]3CC[C@]12C
Activity (HL-60 [8]): inactive
Activity (HL-60 [9]): inactive
IC50 (HL-60 [3]): > 50 µM

SMILES: C[C@H](/C=C/c1cc[n+](C)cc1)[C@H]1CC[C@H]2C3=CC[C@H]4C[C@@H](O)CC[C@]4(C)[C@H]3CC[C@]12C.[I-]
Activity (HL-60 [1]): Active
Activity (HL-60 [11]): Toxic
IC50 (HL-60 [3]): 3 µM

SMILES: CC(=O)O[C@H]1CC[C@@]2(C)[C@@H](CC=C3[C@@H]2CC[C@]2(C)[C@@H]([C@H](C)C(=O)N(C)CC(C)C)CC[C@@H]32)C1
Activity (HL-60 [8]): inactive
Activity (HL-60 [2]): Active
IC50 (HL-60 [3]): 47 µM

SMILES: CNC[C@@H](C)[C@H]1CC[C@H]2C3=CC[C@H]4C[C@@H](OC(C)=O)CC[C@]4(C)[C@H]3CC[C@]12C
Activity (HL-60 [1]): Active
Activity (HL-60 [10]): Active
Activity (HL-60 [11]): Toxic
Activity (HL-60 [12]): Active
Activity (HL-60 [6]): Active
IC50 (HL-60 [3]): 20 µM

SMILES: CCN(CC)CCO[C@H]1CC[C@@]2(C)C(=CC[C@@H]3[C@@H]2CC[C@]2(C)C(=O)CC[C@@H]32)C1
IC50 (HL-60 [3]): > 50 µM

SMILES: CC(C)=CCC[C@@H](C)[C@H]1CC[C@H]2C3=CC[C@H]4C[C@@H](O)CC[C@]4(C)[C@H]3CC[C@]12C
Activity (HL-60 [7]): inactive

SMILES: CCC(=O)N(C)C[C@@H](C)[C@H]1CC[C@H]2C3=CC[C@H]4C[C@@H](OC(C)=O)CC[C@]4(C)[C@H]3CC[C@]12C
Activity (HL-60 [1]): Active
Activity (HL-60 [11]): Toxic
IC50 (HL-60 [3]): 20 µM

SMILES: CC(=O)O[C@H]1CC[C@@]2(C)[C@@H](CC=C3[C@@H]2CC[C@]2(C)[C@@H]([C@H](C)COC(=O)CN(C)C)CC[C@@H]32)C1
Activity (HL-60 [1]): Active
Activity (HL-60 [11]): Toxic
IC50 (HL-60 [3]): 21 µM

SMILES: CCONC(=O)[C@@H](C)[C@H]1CC[C@H]2C3=CC[C@H]4C[C@@H](OC(C)=O)CC[C@]4(C)[C@H]3CC[C@]12C
Activity (HL-60 [8]): inactive
Activity (HL-60 [11]): Toxic
IC50 (HL-60 [3]): 18 µM

SMILES: CCC(=O)NC[C@@H](C)[C@H]1CC[C@H]2C3=CC[C@H]4C[C@@H](OC(C)=O)CC[C@]4(C)[C@H]3CC[C@]12C
Activity (HL-60 [1]): Active
Activity (HL-60 [2]): Active
IC50 (HL-60 [3]): > 50 µM

SMILES: C/C=C/C(=O)OC[C@@H](C)[C@H]1CC[C@H]2C3=CC[C@H]4C[C@@H](OC(C)=O)CC[C@]4(C)[C@H]3CC[C@]12C
Activity (HL-60 [1]): Active
Activity (HL-60 [11]): Toxic
IC50 (HL-60 [3]): 10 µM

SMILES: C[C@H](CO)[C@H]1CC[C@H]2C3=CC[C@H]4C[C@@H](O)CC[C@]4(C)[C@H]3CC[C@]12C
Activity (HL-60 [1]): Active
Drug uptake (HL-60 [13]): 1 µM
Drug uptake (HL-60 [14]): 6 µM
Activity (HL-60 [2]): Active
IC50 (HL-60 [3]): > 50 µM

SMILES: CC(=O)O[C@H]1CC[C@@]2(C)[C@@H](CC=C3[C@@H]2CC[C@]2(C)[C@@H]([C@H](C)COC=O)CC[C@@H]32)C1
Activity (HL-60 [1]): Active
Drug metabolism [15]: Metabolite_Notdetected
Activity (Mus musculus [16]): 1 µg/mL
Activity (Mus musculus [17]): Non-Toxic
Drug uptake (HL-60 [13]): 1 µM
Activity (Mus musculus [18]): Active
Drug uptake (HL-60 [14]): 2 µM
Activity (HL-60 [2]): Active
IC50 (HL-60 [3]): > 50 µM
Activity (Mus musculus [19]): Non-Toxic
Activity (Mus musculus [20]): Non-Toxic

SMILES: CC(=O)O[C@H]1CC[C@@]2(C)[C@@H](CC=C3[C@@H]2CC[C@]2(C)[C@@H]([C@H](C)CN)CC[C@@H]32)C1
Activity (HL-60 [1]): Active
Activity (HL-60 [2]): Active
IC50 (HL-60 [3]): > 50 µM

SMILES: CC(=O)O[C@H]1CC[C@@]2(C)[C@@H](CC=C3[C@@H]2CC[C@]2(C)[C@@H]([C@H](C)C=O)CC[C@@H]32)C1
Activity (HL-60 [8]): inactive
Activity (HL-60 [9]): inactive
IC50 (HL-60 [3]): > 50 µM

SMILES: CN1CCN(CCCN2c3ccccc3Sc3ccc(C(F)(F)F)cc32)CC1 [TRIFLUOPERAZINE HYDROCHLORIDE]
Activity (HL-60 [1]): Active
Activity (HL-60 [21]): Active
Activity (HL-60 [6]): Active
INH [22]: 1 to 50 µM
Activity (HL-60 [2]): Active
IC50 (HL-60 [3]): 16 µM

Further lines, with some results ahead:

IC50 (HL-60 [3]): > 50 µM
SMILES: CC(=O)O[C@H]1CC[C@@]2(C)[C@@H](CC=C3[C@@H]2CC[C@]2(C)[C@@H]([C@H](C)CO)CC[C@@H]32)C1
Activity (HL-60 [1]): Active
Activity (HL-60 [2]): Active

IC50 (HL-60 [3]): > 50 µM
SMILES: CCCC(=O)NC[C@@H](C)[C@H]1CC[C@H]2C3=CC[C@H]4C[C@@H](OC(C)=O)CC[C@]4(C)[C@H]3CC[C@]12C
Activity (HL-60 [4]): Active
Activity (HL-60 [1]): Active
Activity (HL-60 [5]): Active
Activity (HL-60 [6]): Active

IC50 (HL-60 [3]): > 50 µM
SMILES: C/C=C(\C)C(=O)OC[C@@H](C)[C@H]1CC[C@H]2C3=CC[C@H]4C[C@@H](OC(C)=O)CC[C@]4(C)[C@H]3CC[C@]12C
Activity (HL-60 [1]): Active
Activity (HL-60 [2]): Active

IC50 (HL-60 [3]): 10 µM
SMILES: CCN(CC)CCOc1ccc(C(O)(Cc2ccc(Cl)cc2)c2ccc(C)cc2)cc1 (stereo not drawn) [TRIPARANOL]
Activity (HL-60 [1]): Active
Activity (HL-60 [10]): Active
Activity (HL-60 [11]): Toxic
Activity (HL-60 [12]): Active
Activity (HL-60 [6]): Active

IC50 (HL-60 [3]): > 50 µM
SMILES: CONC(=O)[C@@H](C)[C@H]1CC[C@H]2C3=CC[C@H]4C[C@@H](OC(C)=O)CC[C@]4(C)[C@H]3CC[C@]12C
Activity (HL-60 [1]): Active
Activity (HL-60 [2]): Active

IC50 (HL-60 [3]): > 50 µM
SMILES: C[C@H](CO)[C@H]1CC[C@H]2[C@@H]3CC=C4C[C@@H](O)CC[C@]4(C)[C@H]3CC[C@]12C
Activity (HL-60 [1]): Active
Activity (HL-60 [2]): Active

IC50 (HL-60 [3]): 13 µM
SMILES: CCCC(=O)N(C)C[C@@H](C)[C@H]1CC[C@H]2C3=CC[C@H]4C[C@@H](OC(C)=O)CC[C@]4(C)[C@H]3CC[C@]12C
Activity (HL-60 [1]): Active
Activity (HL-60 [11]): Toxic

IC50 (HL-60 [3]): 18 µM
SMILES: CC(=O)O[C@H]1CC[C@@]2(C)[C@@H](CC=C3[C@@H]2CC[C@]2(C)[C@@H]([C@H](C)C(=O)NO)CC[C@@H]32)C1
Activity (HL-60 [8]): inactive
Activity (HL-60 [11]): Toxic

IC50 (HL-60 [3]): > 50 µM
SMILES: CC(=O)O[C@H]1CC[C@@]2(C)[C@@H](CC=C3[C@@H]2CC[C@]2(C)[C@@H]([C@H](C)C(=O)N(C)C)CC[C@@H]32)C1
Activity (HL-60 [8]): inactive
Activity (HL-60 [9]): inactive
